Test results reported in patent publication US7704723B2, “Isolation and characterization of novel clostridial species” (The Board of Regents For Oklahoma State University, priority 2006, dated 2010).
Values after ≈ are worked out from the molar mass of the structure shown.

Assays:
[1] = system: strain P11; test: microbe, parasite or virus in culture
Protocol: (§1) Bacterial Strain and Cultivation Media. Clostridial strain P11 was used throughout the study. Carbon monoxide medium (COM) was used to cultivate and maintain the culture. The growth temperature was 37° C. COM is an undefined buffered medium initially pressurized to 10 psi (70 kPa) with N2/CO2 and then autoclaved for 15 minutes at 121° C. The medium contained per liter of distilled water: 25 ml mineral solution (Table 1), 10 ml trace metals solution (Table 2, 10 ml vitamin solution (Table 3), 1.0 g of yeast extract, 10 g of MES (2-[N-morpholino]ethanesulfonic acid), 0.001 g resazurin, 4.0 g cysteine.HCl, and 4.0 Na2S.9H2O; the initial pH of this medium was 6.1-6.3. The medium was prepared using strict anaerobic technique (Balch & Wolfe, 1976). Carbon monoxide was the sole substrate provided at 210 kPa (30 psi). Unless otherwise noted all growth experiments were conducted under a pressure of 30 psi with CO as the sole or primary substrate and were incubated horizontally to maximize gas diffusion into the medium. Standard inoculum size was about 2% (v/v) transferred from a stock culture that was growing in mid to late exponential phase, unless otherwise noted.
(§2) Analytical methods. Growth was measured spectrophotometrically at 600 nm (Spectronic 20D; Milton Roy) in aluminum seal tubes (Balch & Wolfe, 1976). Acetate and ethanol were measured simultaneously by a gas chromatograph (GC) equipped with a flame ionization detector (FID) on a Varian 3400 equipped with a 2 m steel column packed with an 80/120 Carbopak B-DA/4% carbowax resin 20M (Supelco, Bellfonte, Pa.). The column, injector, and detector temperature were 155, 200, and 200° C. respectively. Helium was the carrier gas and the flow rate was set at 30 ml min^−1. Hydrogen ion concentration was measured by electrode.
Ethanol tolerance. The effect of ethanol on CO metabolism and solvent production was investigated with strain P11. The initial maximum concentration at which strain P11 could survive was determined during the course of these studies. […] Liquid samples (1.0 mL) were extracted once the cells remained at stationary phase and stored frozen (−20° C.) until analyzed by GC and HPLC. After the maximum ethanol concentration for cell survival was determined semi-continuous batch culture experiments were conducted using 500 mL serum bottles containing between 100-200 mL of COM containing different concentrations of ethanol (20, 30, 40, and 50 g/L) to adapt strain P11 to high solvent conditions. The amended COM with ethanol was prepared by adding filter sterilized ethanol to pre-sterilized Balch tubes, and then purging with N/CO2 to remove oxygen. After the media was sterilized, the ethanol was then added to the appropriate concentrations. These bottles were inoculated with the P11 cells from the semi-continuous batch cultures that were already established above. Growth and pH were measured periodically. A portion of the medium extracted for those measurements was taken for analyses of ethanol and acetate concentrations.

[2] = system: Clostridium ragsdalei strain P11; test: Growth of strain P11 on organic and gaseous substrates as sole carbon and energy sources; format: cell-based; settings: Clostridium ragsdalei; malate and formate examined at pH 5.0-6.5
Protocol: Except for the deletion of NaHCO3 and an initial pH 6.3, growth on organic and gaseous substrates was performed as previously described (Tanner et. al., 1993). Resazurin (1 mg/L) was used as the redox indicator. Purified agar was added to the medium at a concentration of 2% for colony morphology description (Table 5). Heat labile substrates were filter sterilized (not autoclaved) and added from sterile stock solutions to a final concentration of 5 g/L before inoculation. The optimum temperature and pH (initial pH) was determined in medium containing fructose as the substrate. For determination of the optimum pH, media was buffered with HOMOPIPES (homopiperazine-N,N′-bis-2-[ethanesulfonic acid] (Research Organics, Cleveland, Ohio), MES (2-[N-morpholino]ethanesulfonic acid), or TES (N-tris [hydroxymethyl]methyl-2-aminoethanesulfonic acid) at (1.0 g/L). A 0.1 ml (˜2%) inoculum of fructose-grown cells was used to initiate growth. All media components used in these experiments were obtained from Sigma unless otherwise noted (Sigma Chemical Co., St. Louis, Mo.).
Analytical methods. […] For the substrate malate, utilization was analyzed by HPLC (“high-performance liquid chromatography”) equipped with a UV detector set at 214 nm using a Alltech, Prevail Organic Acid column (4.6×150 mm, 5 μm; Alltech, Deerfield, Mich.) with a mobile phase of 25 mM KH2PO4, pH 2.5 and 10% (v/v) methanol.

[3] = system: strain P11; test: Metabolic inhibitor studies (FA/TFA) in CO medium; format: cell-based, Clostridium ragsdalei
Protocol: as §1, §2
Metabolic Inhibitor Studies. Filter sterilized anaerobic stock solutions of fluoroacetate (FA) and trifluoroacetate (TFA) (Sigma Chemical Co.) were prepared to final concentrations of 4.5M. Before preparation, the FA and TFA powders were allowed to sit overnight in small beakers in the anaerobic chamber to allow any trapped oxygen to diffuse from the powder. […] The inhibitors were usually added to the medium one day prior to inoculating with P11 to ensure anaerobicity was maintained. All additions were made anaerobically by syringe. During this study growth was measured periodically by spectroscopy. Toward the end of resting cell phase, liquid samples (1 mL) were taken and stored frozen (−20° C.) until analyzed by GC and HPLC.

[4] = system: thermophilic clostridium; settings: cited from earlier work

Row | SMILES | MIC ([1]; Clostridium ragsdalei, P11, read-out: Minimum inhibitory concentration) | Growth at the 50 g/L ethanol concentration ([1]; adapted semi-continuous batch culture) | Growth relative to the unamended control without ethanol ([1]; all ethanol concentrations, 15-35 g/L) | Ethanol concentration at which the adapted culture functions fully ([1]; culture adapted to ethanol) | Highest ethanol concentration at which the adapted culture was established ([1]; semi-continuous batch culture, stepwise adaptation from 20 g/L) | Ethanol concentration in which P11 remains viable and will grow ([1]; statement in the description) | Ethanol concentration initially tolerated ([1]; strain P11, not adapted) | Ethanol concentration that inhibited strain P11 ([1]; upon initial isolation) | Growth with substrate [2] | Decrease of acetate production ([3]; 30 mM FA and above) | Decrease of ethanol production ([3]; 30 mM FA and above) | Decrease of growth yield ([3]; 30 mM FA and above) | Increase of ethanol to acetate ratio ([3]; 30 mM FA and above) | Growth yield (OD) or end products relative to the P11 control ([3]; COM containing 20 mM FA) | MIC ([3]; Clostridium ragsdalei, strain P11 in COM, CO substrate, read-out: MIC (minimum inhibitory concentration)) | Ethanol production compared to the control strains ([3]; P11 in the presence of the inhibitor, identical conditions) | Acetate ([3]; P11 with 15 mM FA) | Ethanol ([3]; P11 with 15 mM FA) | Final OD 600 ([3]; P11 with 15 mM FA) | Concentration shown to inhibit growth [4]
1 | CCO [Ethanol] | 35 mg/mL (≈ 760 mM) | ≤ 0.55 OD units | Growth was retarded | 50 grams per liter | 50 g/L | at least 60 g/L | up to 30 g/L | 30 grams per liter | chemoorganotrophic growth was observed |  |  |  |  |  |  |  |  |  |  | 
2 | O=C(O)CF [FA, fluoroacetate] |  |  |  |  |  |  |  |  |  | nearly ninety percent | fifty | forty percent | eighty percent | no significant differences | 100 mM (≈ 7800 µg/mL) | increase of ethanol production | 48.72 mM | 39.62 mM | 0.741 | 50 mM
